Experimental data as given in PubChem BioAssay AID624258 (Broad Institute, 2012).
Active and inactive are the calls of the source. How the calls were made is not given here.

Tested on: S. cerevisiae SKN7-toxicity growth rescue, plate reader
Experiment: SKN7 mediated toxicity in Saccharomyces cerevisiae, growth rescue counterscreen, dose confirmation (AID 624258);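 further: growth read after three days of incubation at 30 °C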

| SMILES | AC40 |
| --- | --- |
| O=c1c2cc(Cl)ccc2oc2nc3n(c(=O)c12)CCCS3 | 19.1 µM |
| Cc1ccccc1OCc1nc2ccccc2n1C | 7.54 µM |
| CCn1c(=O)oc2cc(NC(=O)CCl)ccc21 | 18.2 µM |
| Cn1nc(C(F)(F)F)c(C#N)c1N1CCN(c2ccccc2)CC1 | 17.6 µM |
| Cc1ccnc(N2C(=O)c3cccc4c([N+](=O)[O-])ccc(c34)C2=O)c1 | 0.166 µM |
| CCOC(=O)c1ccc(NC(=O)CC2OCCN(CC)C2=O)cc1 (configuration not stated) | 5.81 µM |
| Cc1nn(-c2nnc(NCc3ccccc3)nn2)c(C)c1Br | 6.94 µM |
| COc1ccccc1-c1cc(C(F)(F)F)nc(S(C)(=O)=O)n1 | 1.71 µM |
| O=[N+]([O-])c1ccc(-c2nc(-c3cccs3)c(-c3cccs3)[nH]2)cc1 | 4.72 µM |
| Cc1nc2c(nc1C)C(=O)c1ccccc1C2=O | 13 µM |
| Cc1ccccc1OCC(O)Cn1c2ccccc2c2ccccc21 (configuration not stated) | 3.61 µM |
| CSC1=NC(=O)/C(=C/c2ccc(SC)cc2)S1 | 2.61 µM |
| N#C/C(=C\c1cccnc1)c1ccc(Br)cc1 | 15.9 µM |
| O=C(CSc1ccc(-c2ccccn2)nn1)NC1CCCC1 | 7.77 µM |
| Cc1cccc(C)c1NS(=O)(=O)c1ccc(-c2cnc(C3CC3)o2)cc1 | 7.85 µM |
| Cc1nn2c(-c3ccncc3)nnc2c2ccccc12 | > 6.8 µM (inactive) |
| CC1=CC(=O)C(C(C)C)=C/C1=N/OC(=O)c1cccc([N+](=O)[O-])c1 | 1.05 µM |
| CCOc1ccc(/C=C2/SC(=O)NC2=S)cc1 | 1.24 µM |
| COc1ccc(CNc2ncnc3sccc23)cc1 | 14.6 µM |
| COc1ccc2c(c1)OC[C@H]1[C@H]2N2C(=O)c3cc(Cl)ccc3NC(=O)[C@@]2(C)[C@H]1c1ccccc1 | 10.8 µM |
| Clc1cccc(CON/C=N/c2ncnc3sccc23)c1 | 3.8 µM |

| SMILES | AC40 |
| --- | --- |
| O=C(CSc1ccc(-c2ccccn2)nn1)N1CCc2ccccc21 | 10.2 µM |
| Nc1c(Cl)ncnc1N/N=C/c1ccc2ccccc2n1 | 4.34 µM |
| Cc1cccc(NS(=O)(=O)c2ccc(-c3cnc(C4CC4)o3)cc2)c1C | 12.6 µM |
| CSc1nccc(NC(=O)c2ccc(C(C)(C)C)cc2)n1 | 7.82 µM |
| O=Nc1c(O)n(Cc2ccc(Cl)c(Cl)c2)c2ccccc12 | 8.74 µM |
| O=C(C1CC2C=CC1C2)N1CCN(c2ccccc2)CC1 (configuration not stated) | 3.11 µM |
| COc1cccc2c1C(=O)c1c(O)c3c(c(O)c1C2=O)C[C@@](O)(C(=O)CO)C[C@@H]3O[C@H]1C[C@H](N)[C@H](O)[C@H](C)O1 | 6.21 µM |
| COc1ccc(/C=C(\C#N)c2c[nH]c3ccccc23)cc1 | 17.6 µM |
| O=C(Oc1cccc(C(=S)N2CCOCC2)c1)c1ccc([N+](=O)[O-])cc1[N+](=O)[O-] | 16.4 µM |
| O=C(NCC1CC1(Cl)Cl)Nc1ccc(Cl)c(Cl)c1 (configuration not stated) | > 6.8 µM (inactive) |
| N/C(Cc1ccc(Cl)cc1Cl)=N\OC(=O)c1ccccc1F | 0.718 µM |
| Cc1ccc(S(=O)(=O)N2CCOC23CCN(C(=O)c2cc(Cl)ccc2Cl)CC3)cc1 | 7.25 µM |
| Cc1ccc(CN2CC(C(=O)N(Cc3nnc(-c4ccccc4Cl)o3)C3CC3)CC2=O)cc1 (configuration not stated) | 8.15 µM |
| COC(=O)c1cc(Sc2cccc(Cl)c2Cl)ccn1 | 14.7 µM |
| Nc1[nH]c(=O)ncc1F | 1.83 µM |
| Cc1ccc(CCNc2ncnc(Cl)c2N)cc1 | 3.87 µM |
| O=C(Oc1ccc(N(C(=O)c2ccncc2)S(=O)(=O)c2ccc(Cl)cc2)cc1)c1ccncc1 | 0.978 µM |
| O=C(NNC(=O)c1cc(Cl)ccc1O)c1cccc(S(=O)(=O)N2CCOCC2)c1 | 3.31 µM |
| COc1ccc(C(=O)NC(=S)NNC(=O)CCc2ccccc2)cc1 | 1.42 µM |
| O=C(N/N=C(\c1ccccc1)c1cccnc1)c1cccc(F)c1 | 1.12 µM |
| O=C(CCc1ccccc1)NNC(=S)NC(=O)c1ccccc1 | 0.923 µM |

| SMILES | AC40 |
| --- | --- |
| COc1ccc2c(c1)S/C(=C\C(=O)c1ccncc1)N2C | 1.76 µM |
| CNC1=C(N(C(C)=O)c2ccc(Br)cc2)C(=O)c2ccccc2C1=O | 15.8 µM |
| CCCCOc1ccc2c(c1)C(=O)c1cc(O)ccc1-2 | 1.93 µM |
| CC(=O)C1CCC2C3CC=C4CC(SC(=N)N)CCC4(C)C3CCC12C (configuration not stated) | 1.66 µM |
| COc1cc2c(cc1/C=C/[N+](=O)[O-])OCO2 | 6.54 µM |
| CCCCCCCCNC(=O)/C(C#N)=C/c1ccccc1[N+](=O)[O-] | 3.17 µM |
| O=C(N/N=C/c1sc(N2CCOCC2)nc1-c1ccccc1)c1ccccc1O | 3.04 µM |
| CN(C)S(=O)(=O)c1cccc(NC(=S)NNC(=O)c2cc3ccccc3cc2O)c1 | 1.27 µM |
| CSc1cccc(NC(=O)/C=C/c2cccc(Cl)c2)c1 | 4.52 µM |
| Cc1cccc(N2CCN(C(=O)C3CCCCC3)CC2)c1C | 19.3 µM |
| Cc1ccc(-c2cc(-c3ccc(C)cc3)[n+](-c3ccccc3)c(-c3ccc(C)cc3)c2)cc1 | 4.13 µM |
| CN1CCN(C2CCN(c3ccc(Nc4nnc(Cl)c(Nc5ccccc5S(C)(=O)=O)n4)c(OC(CF)CF)c3)CC2)CC1 | 15.1 µM |
| COc1ccc2nc(NN=C(C)c3ccccn3)cc(C)c2c1 | 3.23 µM |
| Cn1cnc([N+](=O)[O-])c1S(=O)(=O)Oc1ccc(Cl)cc1 | 1.31 µM |
| O=[N+]([O-])c1cc(Cl)cc(/C=N/NC(=S)Nc2ccc(S(=O)(=O)N3CCOCC3)cc2)c1O | 2.22 µM |
| COc1ccc(N2C(=O)C(Cl)=C(Nc3ccccc3O)C2=O)cc1 | 4.9 µM |
| O=C1c2ccccc2NC(c2ccc(Cl)cc2Cl)N1O (configuration not stated) | 7.55 µM |
| COc1ccc2c(c1)OC[C@H]1[C@H]2N2C(=O)c3cc(OC)ccc3NC(=O)[C@@]2(C)[C@H]1c1ccccc1 | 9.31 µM |
| Cc1onc(-c2ccccc2)c1C(=O)OCc1nnc(-c2ccc([N+](=O)[O-])cc2)o1 | 2.27 µM |
| COc1ccc2cnn(CCOc3cc(C)ccc3C(C)C)c(=O)c2c1OC | 4.15 µM |
| COc1ccc(N=N/C(=C\O)C(=O)c2cccs2)cc1 | 1.32 µM |

| SMILES | AC40 |
| --- | --- |
| COC(=O)c1ccc(SC2CCCCC2)c([N+](=O)[O-])c1 | 1.47 µM |
| CCc1oc2ccccc2c1C(=O)c1cc(Br)c(O)c(Br)c1 | 0.912 µM |
| O=C(NC1=CC(=O)c2ccccc2C1=O)c1ccccc1 | 3.18 µM |
| S=C(NCCCc1ccccc1)Nc1ccc(Br)cc1 | 4.26 µM |
| CCc1ccccc1OCC(=O)Nc1nc(-c2cccnc2)cs1 | 1.23 µM |
| COc1cccc(/C=N/NC(=O)c2cc(-c3cccn3C)n[nH]2)c1O | 5.62 µM |
| Cc1[nH]n(-c2cccc3ccccc23)c(=O)c1/C=N/NC(=O)c1cccc([N+](=O)[O-])c1 | 0.738 µM |
| O=C(C1=C(Nc2ccccc2)c2ccccc2S(=O)(=O)N1)c1ccccc1 | 2.51 µM |
| Cc1oc2c(c1C(=O)c1ccc(Cl)cc1)C(=O)C(=O)c1ccccc1-2 | 1.27 µM |
| O=C(COC(=O)c1ccc([N+](=O)[O-])o1)NC1CCCc2ccccc21 (configuration not stated) | 2.34 µM |
| Fc1ccc(CCNC(=S)Nc2ccc(F)c(Cl)c2)cc1 | 3.7 µM |
| COc1ccc(N(C(=O)c2ccncc2)S(=O)(=O)c2ccc(F)cc2)cc1 | 3.67 µM |
| CCCCCCCN1N=C(C)C(C(=O)c2ccccc2)C1=O (configuration not stated) | 0.764 µM |
| O=C1C=C(Nc2cccnc2)c2ccccc2C1=O | 11 µM |
| COc1ccc(C(=O)c2c(C(F)(F)F)oc3c2C(=O)c2ccccc2C3=O)cc1OC | 14.3 µM |
| CC1CCCCC1NC(=O)/C(C#N)=C/c1ccccc1F (configuration not stated) | 2.04 µM |
| COc1ccccc1N(C)S(=O)(=O)c1ccc(Cl)c(C(=O)NNC(=O)c2ccccc2O)c1 | 1.95 µM |
| CC(=O)NC(c1ccc(Cl)cc1Cl)c1ccc2cccnc2c1O (configuration not stated) | 1.38 µM |
| Cc1cccc(N2C(=O)C(Oc3ccc(Cl)cc3Cl)C2C=O)c1C (configuration not stated) | 1.98 µM |
